Source: patent US10876076B2, “Detergents and cleaning agents having improved performance” (Henkel AG & Co. KGaA, priority 2016, dated 2020)

Experiment: Water solubility
Format: physicochemical
Conditions: deionized water, pH 7, room temperature
Description: [drawing 6] 2,3-dihydroxyterephthalic acid dimethyl ester (12.89 g, 57 mmol) from step a) was suspended in N,N-dimethylethylenediamine (72.8 g, 809 mmol) and the reaction mixture was stirred for 24 hours at 100° C. After adding 100 ml of dimethylformamide (DMF), the excess of N,N-dimethylethylenediamine, together with the DMF, was removed by distillation. The solid obtained was washed 2 times using 300 ml of ethyl acetate, subsequently recrystallized from methanol/ethyl acetate (1:2.5) and dried in a vacuum. 9.6 g of 2,3-dihydroxy-N,N′-bis(2-(dimethylamino)ethyl)terephthaldiamide was obtained as a beige solid. The water solubility thereof (deionized water, pH 7, room temperature) was over 70 g/l.

Q: Which solubility does the source give for `CN(C)CCNC(=O)c1ccc(C(=O)NCCN(C)C)c(O)c1O` [S1, 2,3-dihydroxy-N,N′-bis(2-(dimethylamino)ethyl) terephthaldiamide] here?
A: > 70 mg/mL
